Measured values: US5444042A, “Method of treatment of neurodegeneration with calpain inhibitors” (Cortex Pharmaceuticals, priority 1994, dated 1995)

Assays:
[1] = biological target: T1, Calpain I (Homo sapiens, UniProt P07384); test: Calpain I 14C-methylated casein proteolysis (Table 1A); assay type: biochemical
T1 sequence (P07384 1-714): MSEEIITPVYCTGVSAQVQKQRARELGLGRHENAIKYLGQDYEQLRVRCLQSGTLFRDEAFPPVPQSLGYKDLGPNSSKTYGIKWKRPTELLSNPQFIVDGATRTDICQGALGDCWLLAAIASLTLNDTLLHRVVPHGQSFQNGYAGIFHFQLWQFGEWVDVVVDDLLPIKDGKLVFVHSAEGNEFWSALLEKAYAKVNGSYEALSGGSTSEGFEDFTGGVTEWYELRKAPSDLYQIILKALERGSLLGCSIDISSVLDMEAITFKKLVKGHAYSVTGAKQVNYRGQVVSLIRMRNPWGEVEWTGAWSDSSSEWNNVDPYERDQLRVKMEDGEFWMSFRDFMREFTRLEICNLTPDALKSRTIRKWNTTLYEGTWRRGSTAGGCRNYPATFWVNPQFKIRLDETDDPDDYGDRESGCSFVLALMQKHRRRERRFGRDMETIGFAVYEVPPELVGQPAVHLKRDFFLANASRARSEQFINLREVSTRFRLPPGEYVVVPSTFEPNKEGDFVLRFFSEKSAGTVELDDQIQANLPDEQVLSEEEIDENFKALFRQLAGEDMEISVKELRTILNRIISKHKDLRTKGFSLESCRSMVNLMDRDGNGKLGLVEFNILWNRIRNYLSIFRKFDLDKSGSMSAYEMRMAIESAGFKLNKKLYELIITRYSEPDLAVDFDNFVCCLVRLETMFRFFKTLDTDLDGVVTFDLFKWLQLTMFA
T1 sequence (P04632 1-268 partner): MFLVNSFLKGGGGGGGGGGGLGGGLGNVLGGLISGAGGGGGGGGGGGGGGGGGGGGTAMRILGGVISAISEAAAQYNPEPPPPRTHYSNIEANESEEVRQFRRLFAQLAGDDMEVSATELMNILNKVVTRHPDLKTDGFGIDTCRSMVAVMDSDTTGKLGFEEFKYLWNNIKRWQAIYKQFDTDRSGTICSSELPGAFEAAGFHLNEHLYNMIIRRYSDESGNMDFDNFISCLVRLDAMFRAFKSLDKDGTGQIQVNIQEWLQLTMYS
Method: The isocoumarins are irreversible inhibitors of Calpain. We obtained IC50 values for a variety of these Calpain Inhibitors as a kinetic analysis of these compounds.
Calpains I and II were purified by the method of (Yoshimura, et al. 1983). (Kitahara 1984) provides an alternative purification scheme. Calpain II may alternatively be purchased from Sigma Chemical Co. as "Calcium Activated Neutral Protease." In this assay, purified Calpain was incubated with ^14 C-methylated casein in the presence of various Heterocyclic Compounds and the amount of acid-soluble radioactivity released by the action of Calpain was measured.

[2] = biological target: Calpain II; test: Calpain II KI (Table 1B(ii)); assay type: biochemical
Source text: (§1) We tested the ability of an additional group of Peptide Keto-Compounds to inhibit several proteases in order to evaluate their specificity for Calpain.

[3] = biological target: Cathepsin B (Bos taurus, UniProt P07688); test: Cathepsin B KI (Table 1B(ii)); assay type: biochemical; settings: read-out: KI CathB
Source text: as §1

[4] = biological target: Chym (Bos taurus, UniProt P00766); test: Chym KI (Table 1B(ii)); assay type: biochemical
Source text: as §1

[5] = biological target: PP Elastase (Sus scrofa, UniProt P00772); test: PP Elastase KI (Table 1B(ii)); assay type: biochemical
Sequence of PP Elastase (P00772 27-266): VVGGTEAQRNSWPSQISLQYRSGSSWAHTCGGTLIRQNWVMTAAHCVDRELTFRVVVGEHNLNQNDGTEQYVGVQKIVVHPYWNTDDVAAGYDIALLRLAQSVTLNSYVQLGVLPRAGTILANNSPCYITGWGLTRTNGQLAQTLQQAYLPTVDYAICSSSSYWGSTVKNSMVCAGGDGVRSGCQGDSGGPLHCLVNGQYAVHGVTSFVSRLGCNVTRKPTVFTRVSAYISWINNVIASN
Source text: as §1

[6] = Stability in plasma; assay type: in vitro ADME; settings: unit assumed
Source text: (§2) We determined the haft-life of several Peptide Keto-Compounds in both plasma and liver homogenates.

[7] = Stability in liver homogenates; assay type: in vitro ADME; settings: unit assumed
Source text: as §2

[8] = system: Calpain within platelets; test: Platelet membrane permeation assay, spectrin proteolysis (Examples 4A, 4B); assay type: cell-based, rat; settings: for IC50: concentration at which 50% of the Calpain activation present in controls occurred; for inhibition of Calpain within platelets / platelet assay, semi-quantitative: 100 μM; for inhibition of Calpain within platelets: A23187 1 μM
Method: Platelets were isolated by a modification of the method of Ferrell and Martin, J Biol. Chem., 264:20723-20729 (1989), the disclosure of which is hereby incorporated by reference. Blood (15-20 ml) was drawn from male Sprague-Dawley rats into 100 mM EDTA-citrate containing 10 units heparin, and centrifuged 30 minutes at 1600 rpm at room temperature. The plasma was resuspended in 15 ml buffer 1 (136 mM NaCl, 2.7 mM KCl, 0.42 mM NaH2 PO4, 12 mM NaHCO3, 2 mM MgCl2, 2 mg/ml BSA (Sigma), 5.6 mM glucose, 22 mM Na3 Citrate pH 6.5) and platelets were isolated at 2200 rpm at room temperature of 25 minutes. Platelets were resuspended to 10^7 cells/ml in buffer 2 (136 mM NaCl, 2.7 mM KCl, 0.42 NaH2 PO4, 12 mM NaHCO3, 2 mM MgCl, 1 mg/ml BSA, 5.6 mM glucose, 20 mM HEPES pH 7.4) and allowed to "rest" for a minimum of 10 minutes at room temperature before use.
Platelets were incubated for 5 minutes in the presence of inhibitor. In order to provide sufficient intracellular calcium to activate Calpain, the calcium ionophore A23187 was added to a final concentration of 1 μM. After a further 5 minute incubation, the platelets were harvested by centrifugation (1 min 10,000×g) and resuspended in 10% sodium dodecyl sulfate, 10 mM Tris pH=8.0, 5% β-mercaptoethanol, 0.02% bromophenol blue, and heated to 95° C. for 5 min. Samples were subjected to SDS-PAGE on 6% mini gels and transferred to nitrocellulose (Schleicher and Schuell BAS3) for 2 hours at 100 mA/gel in an LKB Novablot. Filters were blocked for 10 minutes in 0.25% gelatin, 1% BSA, 0.25% Triton X100, 0.9% NaCl, 10 mM Tris-Cl pH 7.5, incubated overnight in the same solution containing antibody to rat spectrin, washed 3×10 minutes with 10 mM Tris-Cl pH 7.5, 0.5 % Triton X100, incubated 4 hours in wash buffer plus alkaline phosphatase conjugated goat anti-rabbit antibody (Biorad), and washed as above. Filters were developed using the Biorad AP conjugate substrate kit. Spectrin immunoreactivity on the filters was quantitated by densitometry.

[9] = biological target: T1, Calpain I; test: Calpain I KI (Table 1B(ii)); assay type: biochemical; settings: Table 1B(ii)
Source text: as §1

[10] = biological target: T2, Papain (Carica papaya, UniProt P00784); test: Papain KI (Table 1B(ii)); assay type: biochemical
T2 sequence (P00784 134-345): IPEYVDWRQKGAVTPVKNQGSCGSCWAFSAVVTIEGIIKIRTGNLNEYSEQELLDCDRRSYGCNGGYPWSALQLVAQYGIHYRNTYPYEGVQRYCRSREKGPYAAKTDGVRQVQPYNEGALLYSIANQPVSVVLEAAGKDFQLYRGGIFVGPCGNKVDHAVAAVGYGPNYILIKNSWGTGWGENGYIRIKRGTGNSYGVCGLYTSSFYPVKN
Source text: as §1

[11] = system: Calpain in crude brain extracts; test: Ca2+-stimulated spectrin proteolysis in crude brain extracts (Example 2); assay type: biochemical; settings: 100 μM
Method: The activity of Calpain in crude brain extracts was measured by examining the Ca^2+ -stimulated proteolysis of the endogenous substrate spectrin. Brain tissue was homogenized in 10 mM Tris pH=7.4, 0.32M sucrose, 1 mM EGTA, 1 mM dithiothreitol and the nuclei and debris removed by low speed centrifugation. […] Proteolysis of spectrin was evaluated by western blot as described by Seubert, et at. (Brain Research, 459:226-232, 1988), the disclosure of which is hereby incorporated by reference. Briefly, a known quantity of a spectrin-containing sample treated with Calpain is separated by SDS-PAGE and immunoblotted with anti-spectrin antibody. The amount of spectrin immunoreactivity found corresponding to the characteristic BDP's is indicative of the amount of […] activity present in the sample. An examplary method for quantitating BDP's is to assay Spectrin BDP's by homogenizing brain parts in 20 mM Tris pH=7.2, 0.32M sucrose, 50 μM Ac-Leu-Leu-nLeu-H on ice. Homogenates are then mixed 1:1 with 10% SDS, 5% β-mercaptoethanol, 10% glycerol, 10 mM Tris pH=8.0, 0.5% bromophenolblue, heated to 95° C., and subjected to electrophoresis in 41/2% polyacrylamide gels. The proteins in the gels are transferred to nitrocellulose and the spectrin and BDP's detected using a rabbit polyclonal anti-spectrin antibody and established immunodetection methods. The amount of spectrin and BDP's in each sample can be quantitated by densitrometric scanning of the developed nitrocellulose.

| Compound | IC50 [1] [µM] | Ki [2] [µM] | Ki [3] [µM] | Ki [4] [µM] | Ki [5] [µM] | t1/2 plasma [6] [h] | t1/2 liver [7] [h] | IC50 [8] [µM] | Ki [9] [µM] | Ki [10] [µM] | inhibition of spectrin proteolysis in crude brain extracts [11] | inhibition of Calpain within platelets [8] | platelet assay, semi-quantitative [8] |
| --- | --- | --- | --- | --- | --- | --- | --- | --- | --- | --- | --- | --- | --- |
| N=C(N)SCCOc1oc(=O)c2cc(NC(=O)Cc3ccccc3)ccc2c1Cl [PhCH2 CONH-CiTEtOIC, 7-(phenylacetylamino)-4-chloro-3-(2-isothiureidoethoxy)isocoumarin] | 30 |  |  |  |  |  |  |  |  |  |  |  |  |
| CCCNC(=O)C(=O)[C@H](CC)NC(=O)[C@H](CC(C)C)NC(=O)OCc1ccccc1 [Z-Leu-Abu-CONHnPr, Z-Leu-Abu-CONH-nPr] |  | 0.25 | 8 | > 300 | 2 | > 1 | > 1 | 70 |  |  |  |  |  |
| Z-Leu-Met-CO2 Et [Z-Leu-Met-COOEt] |  | 1.5 | 55 | 1.75 | > 100 | 0.133 |  |  | 1 | 140 | significant inhibition | significant inhibition | + |
| CCOC(=O)C(=O)[C@H](Cc1ccccc1)NC(=O)[C@H](CC(C)C)NC(=O)[C@H](CC(C)C)NC(=O)OCc1ccccc1 [Z-Leu-Leu-Phe-COOEt] |  | 1.9 | 42 | 0.26 | > 100 |  |  |  | 1.4 | 15 |  | significant inhibition | ++ |
| CCCCNC(=O)C(=O)C(Cc1ccccc1)NC(=O)C(CC(C)C)NC(=O)OCc1ccccc1 (stereo not drawn) [Z-Leu-Phe-CONHnBu, Z-Leu-Phe-CONH-nBu] |  | 0.028 | 3 | 8 | > 100 | > 1 | > 1 | 38 |  |  |  |  |  |
| CCC(NC(=O)C(CC(C)C)NC(=O)OCc1ccccc1)C(=O)C(=O)O (stereo not drawn) [Z-Leu-Abu-COOH] |  | 0.022 | 1.5 | > 150 | > 150 | > 1 | > 1 | 8 | 0.075 |  |  | significant inhibition |  |
| CCCCOC(=O)C(=O)C(CC)NC(=O)C(CC(C)C)NC(=O)OCc1ccccc1 (stereo not drawn) [Z-Leu-Abu-COOnBu, Z-Leu-Abu-CO2 Bu] |  |  | 4 | > 100 | 25 |  |  | 28 |  | 10 |  | significant inhibition |  |
| CCCNC(=O)C(=O)C(Cc1ccccc1)NC(=O)C(CC(C)C)NC(=O)OCc1ccccc1 (stereo not drawn) [Z-Leu-Phe-CONHnPr, Z-Leu-Phe-CONH-nPr] |  | 0.05 | 3 | 18 | > 300 | > 1 | > 1 | 24 | 15 |  |  |  |  |
| CC(C)C[C@H](NC(=O)OCc1ccccc1)C(=O)N[C@@H](Cc1ccccc1)C(=O)C(=O)OCc1ccccc1 [Z-Leu-Phe-COOBz, Z-Leu-Phe-CO2 Bzl] |  | 1.6 | 45 | 1.6 | > 100 | 0.0317 |  |  | 3.4 | 45 |  | significant inhibition | ++ |
| CCC(NC(=O)C(CC(C)C)NC(=O)OCc1ccccc1)C(=O)C(=O)NCc1ccccc1 (stereo not drawn) [Z-Leu-Abu-CONHBz, Z-Leu-Abu-CONH-Bzl] |  | 0.35 | 2 | > 300 |  | > 1 | > 1 | 1.5 |  |  |  |  |  |
| CC(C)CC(NC(=O)OCc1ccccc1)C(=O)NC(Cc1ccccc1)C(=O)C(=O)O (stereo not drawn) [Z-Leu-Phe-COOH] |  | 0.0057 | 4.5 | 76 | > 150 | > 1 | > 1 | 6.5 | 0.0085 |  |  | significant inhibition |  |
| CCCCNC(=O)C(=O)C(CC)NC(=O)C(CC(C)C)NC(=O)OCc1ccccc1 (stereo not drawn) [Z-Leu-Abu-CONHnBu, Z-Leu-Abu-CONH-nBu] |  |  | 13 | > 300 | 5 | > 1 | > 1 | 2 | 0.2 |  |  |  |  |
| CCOC(=O)C(=O)C(Cc1ccc(Cl)cc1)NC(=O)C(CC(C)C)NC(=O)OCc1ccccc1 (centres unmarked) [Z-Leu-4-Cl-Phe-COOEt] |  | 0.4 | 50 | 0.9 | > 100 |  |  |  | < 4 | 150 |  | significant inhibition | + |
